We go through two substances from patent US20110165173A1, “THERAPEUTIC AGENT AND DETECTION REAGENT FOR ARTERIOSCLEROTIC DISEASE WHICH TARGETS FOR SALUSIN” (PROTEINEXPRESS CO., LTD., priority 2007, published 2011).

What all share (assay type): in vivo
One experiment has as its system apoE-deficient mice. The experiment is described as follows: Arteriosclerotic lesions of aorta in apoE-deficient mice under continuous subcutaneous administration (oil red O staining). The note with it: 0.6 nmol/kg/h continuous subcutaneous. The procedure: Effects of continuous administration of salusin-α and salusin-β on arteriosclerosis were examined with the use of apoE-deficient mice as arteriosclerosis animal models. Herein, antiserum effects of salusin-α or salusin-β were also examined. In addition to examination of arteriosclerotic lesions, foaming of macrophages, which is important for formation of arteriosclerosis primary lesions, was focused on and cholesterol ester accumulation caused by oxidized LDL was assayed. Expression analysis was carried out for scavenger receptors (CD36 and SR-A) capable of recognizing oxidized LDL, an intracellular cholesterol esterification enzyme (acyl-CoA) (cholesterol acyltransferase 1 (ACAT1)), and ATP-binding cassette transporter A1 (ABCA1), ABCG1, and SR-BI, which are involved in the mechanism of extracellular transportation of excessive intracellular free cholesterol (cholesterol efflux).
The above animal experiments were carried out in accordance with the experimental practice guidelines established by Showa University (Japan). All the apoE-deficient mice used for this study were purchased from the Jackson Laboratory (Bar Harbor, Me., U.S.A.).
(§1) 13-week-old male apoE-deficient mice (72 mice) were divided into the following 6 groups: (i) physiological salt saline (control); (ii) salusin-α (0.6 nmol/kg/h); (iii) salusin-β (0.6 nmol/kg/h); (iv) salusin-α (0.6 nmol/kg/h)+anti-salusin-α serum (1.4 μg/kg/h); (v) salusin-β (0.6 nmol/kg/h)+anti-salusin-β serum (1.4 μg/kg/h); and (vi) anti-salusin-β serum (1.4 μg/kg/h). The mice were subjected to continuous subcutaneous administration with the use of an osmotic mini-pump for 4 to 8 weeks. The osmotic mini-pump and the solution contained therein were changed every week.
Mice ingesting a normal diet were subjected to experiments. The following parameters were assayed.
Each collected aorta was cut in the longitudinal direction, followed by oil red O staining for examination of the surface area of each atherosclerosis lesion with lipid pigmentation. Adobe Photoshop (Adobe System Inc., San Jose, Calif., U.S.A.) was used for identification of arteriosclerotic lesions, followed by analysis using NIH Scion Image (Scion Corp., Frederick, Md., U.S.A.) for quantification of the surface area of each lesion. In addition, cross-sections of the vicinity of the aorta (immediately below the aortic valve) were prepared, followed by oil red O staining for detailed analysis of arteriosclerotic lesions.

A further experiment deals with CD36. Nature of the experiment: CD36 expression by macrophages of treated apoE-deficient mice (Western blotting). Conditions: four weeks. The procedure: as §1
Macrophages were collected as in the experiment in (1), and the protein expression of the gene involved in foaming of macrophages (i.e., scavenger receptors CD36 and SR-A capable of recognizing oxidized LDL, intracellular cholesterol esterification enzyme ACAT1, and ABCA1, ABCG1, and SR-BI, which are involved in cholesterol efflux) was analyzed by Western blotting. For the internal standard of the macrophage function, β-actin expression was also examined. For quantification of the band concentration, Analyzer (ATTO Corporation, Tokyo) was used.

The test system of experiment [1] is macrophages of apoE-deficient mice. The experiment is described as follows: Foaming (oxidized LDL-induced cholesterol ester accumulation) of macrophages collected from treated apoE-deficient mice. Conditions: 0.6 nmol/kg/h, four weeks. The procedure:
as §1
On Day 4 after intraperitoneal administration of thioglycollate, transudatory macrophages were collected and cultured with an RPMI1640 solution containing 10% bovine fetal serum. Oxidized LDL (10 μg/mL) and [^3H] oleic acid (0.1 mM) were added to the culture solution. After 13 hours, the radioactivity of intracellularly accumulated cholesterol [^3H] oleic acid was assayed for evaluation of foaming of macrophages.

Regarding “salusin-α: peptide (SEQ ID NO: 1) comprising 28 amino acid residues, generated by processing from preprosalusin (SGALPPAPAAPRPALRAQRAGPAGPGAK; listed as Homo sapiens)”, in the experiment on apoE-deficient mice (eight weeks), the “arteriosclerotic lesion surface area” value is on record as “reduced to less than half” and the plaque formation result is on record as “obvious plaque formation was not observed”. Also, the CD36 protein expression result in the experiment with CD36 (salusin-α 0.6 nmol/kg/h) was “did not influence”. Also, the “foaming of macrophages due to oxidized LDL (intracellular cholesterol ester accumulation), fraction of control” value in experiment [1] (P<0.05) is listed as “approximately ¼”.
“salusin-β: peptide (SEQ ID NO: 3) comprising 20 amino acid residues, generated by processing from preprosalusin (AIFIFIRWLLKLGHHGRAPP; listed as Homo sapiens) [reference compound]”: the “proximal aorta cross-sections, oil red O staining, compared with control group” value in the experiment with apoE-deficient mice (four weeks) is “formation of atheroma stained red with oil red O and thickening of the blood vessel wall were observed”. Besides, in the experiment with apoE-deficient mice (four weeks, P<0.005), the “mean arteriosclerotic lesion surface area of the aortic arch relative to control group” value is “approximately 2.5 times”. Further, in the experiment with CD36 (0.6 nmol/kg/h, range given jointly for CD36, SR-A, ACAT1, P<0.05), the “CD36 protein expression relative to control level” value lay within 1.5 to 2.8 times. Also, in experiment [1] (P<0.01), the “foaming of macrophages due to oxidized LDL relative to control” value was “approximately 2 times”.
